The record followed here is ChEMBL document CHEMBL4177522, “Effects of new fluorinated analogues of GABA, pregabalin bioisosters, on the ambient level and exocytotic release of [3H]GABA from rat brain nerve terminals” (Bioorg Med Chem, 2017).

The nature of data set [1]: Induction of plasma membrane hyperpolarization in Wistar rat synaptosomes at 100 uM by rhodamine 6G based spectrofluorimeteric method. Format: subcellular, Synaptosome.
The nature of data set [2]: Induction of plasma membrane depolarization in Wistar rat synaptosomes at 100 uM by rhodamine 6G based spectrofluorimeteric method. The data set is classed as subcellular, Synaptosome.
Data set [3] is described as follows: Effect on ambient level of L-[3H]glutamate in Wistar rat synaptosomes assessed as L-[3H]glutamate level at 100 uM preincubated for 20 mins (reference value: 24.68 +/- 1.49%). The data set is classed as ADME, subcellular, Synaptosome.
Data set [4] can be described thus: Effect on ambient level of [3H]GABA in Wistar rat synaptosomes assessed as [3H]GABA level at 100 uM preincubated for 20 mins in presence of GAT1 specific blocker NO-711 (reference value: 25.07 +/- 2.1%). The data set is classed as ADME, subcellular, Synaptosome.
Data set [5] can be described thus: Effect on ambient level of [3H]GABA in Wistar rat synaptosomes assessed as [3H]GABA level at 100 uM preincubated for 20 mins (reference value: 14.20 +/- 1.03%). Format: ADME, subcellular, Synaptosome.
For another data set, the species on record is Rattus norvegicus. As to the kind of experiment: Decrease in KCl-induced exocytotic release of [3H]GABA in Wistar rat synaptosomes at 100 uM preincubated for 20 mins followed by Kcl addition in Ca2+ containing media measured after 5 mins. The data set is classed as functional, subcellular. The arrangement: scale not given: the % may be the effect or the level left.

In the case of `NC[C@@H](CC(=O)O)C(F)(F)F`, the Activity result in data set [1] was “Non-Toxic”; in data set [2] it was “Non-Toxic”; in data set [3] it was 24.75%; in data set [4] it was 24.86%; in data set [5], 13.35%; in the data set filed under Rattus norvegicus it was 26%.
Consider `CC(C)C[C@H](CN)CC(=O)O` [PREGABALIN], for which the Activity entry in data set [1] is “Non-Toxic”; in data set [2], “Non-Toxic”; in data set [3], 26.2%; in data set [4], 24.34%; in data set [5], 14.1%; in the data set filed under Rattus norvegicus, 15%.
Regarding `NCC(CC(=O)O)C(F)(F)C(F)F` (racemic), the Activity result was “Non-Toxic” in data set [1]; “Non-Toxic” in data set [2]; 25.29% in data set [3]; 26.6% in data set [4]; 14.63% in data set [5]; 33% in the data set filed under Rattus norvegicus.
On to `NC[C@@](O)(CC(=O)O)C(F)(F)F`, for which the Activity result in data set [1] was “Non-Toxic”; in data set [2], “Non-Toxic”; in data set [3], 22.72%; in data set [4], 27.9%; in data set [5], 15.55%; in the data set filed under Rattus norvegicus, 35%.
